According to US11471458B2, “Diacylglycerol acyl transferase 2 inhibitor” (Pfizer Inc., priority 2019, dated 2022):

Experiments:
[1] = Determination of pKa (capillary electrophoresis, Analiza, Inc.); format: physicochemical; conditions: mean
[2] = Intrinsic clearance in human liver microsomes; format: in vitro ADME; conditions: human liver microsome assay; 1 μM test compound, 0.806 mg/mL protein, NADPH, pH 7.4, 37° C.; mean +/− STD Dev
Experimental: The incubations were conducted at 37° C. […] (Sorvall RC 3C Plus, Thermo Scientific, Waltham, Mass.).

human hepatocytes [3] = assay: Intrinsic clearance in human hepatocytes (relay method); format: in vitro ADME; conditions: 1 μM, 20 h total incubation, mean +/− standard deviation
Experimental: For intrinsic clearance (CLint) measurement, hepatocyte relay method was used (Di, L., et al. 2012, Drug Metab. Dispos., 40, 1860-1865 and Di, L., et al. 2013, Drug Metab. Dispos., 41, 2018-2023). Cryopreserved human hepatocytes (Lot DCM from BioreclamationlVT) were used. Upon thawing, the hepatocytes were resuspended in Williams' medium E (custom formula number 91-5233EA; Gibco, Grand Island, N.Y.) supplemented with Hepes and Na2CO3. […] The plates were incubated at 37° C. with 95% air/5% CO2, 75% relative humidity for 4 h at 150 rpm in a humidified incubator. At time 0 and 4 h, 25 μL of hepatocyte suspension was removed from the incubation and added to 50 μL of ice-cold acetonitrile (containing metoprolol, indomethacin, and terfenadine as internal standards) to quench the reaction. The samples were centrifuged (Eppendorf, Hauppauge, N.Y.) at 3000 rpm (1439×g) for 10 min at room temperature, and 50 μL of supernatant was transferred to a clean plate, dried completely, and reconstituted before liquid chromatography/tandem mass spectrometry (LC-MS/MS) analysis. The remaining hepatocyte suspensions in the incubation plate were centrifuged (3000 rpm, 1439×g, 10 min, room temperature). The supernatant of 300 μL was transferred to a clean 24-well plate and stored at −80° C. until the next relay experiment. For the second relay experiment, the supernatant plates were warmed first to room temperature for 30 minutes, then to 37° C. for 30 min, and hepatocytes were added to the samples to give a final cell density of 0.5 million cells/mL. The plates were incubated at 37° C. for 4 h, sampled, and processed as described above. Five relays were performed to give a total incubation time of 20 h, with sampling points at (0, 4, 8, 12, 16 and 20 h). The concentrations of test compound determined at each time point by the LC-MS/MS analysis were used to calculate the intrinsic clearance.

human hepatocytes [4] = assay: High throughput determination of intrinsic clearance in human hepatocytes; format: in vitro ADME; conditions: high throughput human hepatocyte assay; 0.5 million cells/mL, 1 μM test compound, 37° C.; mean +/− Std Dev
Experimental: The incubation was carried out at 37° C. […] The samples were centrifuged (Eppendorf, Hauppauge, N.Y.) at 3000 rpm for 5 min at 4° C.

Basic pKa (most basic pKa) [1]: 2.4 | CLint (μL/min/mg) (+/− STD Dev) [2]: <11 ± 3.5 µL/min/mg | CLint (+/− Std Dev), relay hepatocyte assay (human hepatocytes [3]): 2.9 +/− 0.057 μL/min/million cells | CLint (μL/min/10^6 cells) (+/− Std Dev) (human hepatocytes [4]): <3.3 +/− 0.49 μL/min/10^6 cells
Compound: CCOc1cccnc1Oc1cncc(-c2ncc(C(=O)NC3(CO)CCOC3)cn2)c1 (single isomer, unassigned) [WO2018033832 Ex. 6b]
